Measured values from patent US4156016A, “Indole compounds and process for their preparation” (Hoffmann-La Roche Inc., priority 1977, dated 1979).
pIC50: −log10 of the molar value. Read-outs that look alike come from different tables or passages of the source.

Assays:
[1] = Central and peripheral pharmacological activity (statement)
[2] = Gastric ulcer induction (rats); design: species or system male Wistar rats; conditions: rat, in vivo, po
Experimental: The test is a modification of that described by Brodie et al., Gastroenterology, 53, pages 604-610 (1967). Male Wistar rats (Royal Hart Laboratories) were deprived of food for 18 hours prior to testing. Tap water was permitted ad libitum. Test compounds were administered orally four hours to autopsy. The rats were sacrificed under ethyl ether anesthesia, opened along the ventral midline and the stomachs removed. The stomach was divided along the lesser curvature, everted, rinsed in saline, and examined for the presence of focal hemorrhage. Ulcers were rated on an all or none basis for incidence and, in addition, each stomach is graded for severity of ulcers formed. Ulcer scores: 0=none, 1=trace, 2=mild, 3=moderate, and 4=severe. The results of the ulcer scores obtained were subjected to statistical analysis by the student `t` test.

serum PGF2α = assay: Inhibition of prostaglandin formation: serum PGF2α by radioimmunoassay (rats); type: in vivo, male rats; conditions: for ED50: Rattus norvegicus, 1 h, rats
[3] = system: Collagen-Induced Platelet Aggregation; assay: Inhibition of collagen-induced platelet aggregation in human platelet-rich plasma; type: cell-based; conditions: for inhibition at 2.5 µM / inhibition at 5 µM / inhibition at 15 µM / inhibition at 25 µM / inhibition at 50 µM: read-out: Percent Inhibition
Experimental: Venous blood was collected from human volunteers in siliconized 20 ml. […] Platelet rich plasma (PRP) was separated from the red blood cells by centrifugation at 180×g for 15 minutes at room temperature. Platelet poor plasma (PPP) was prepared by centrifuging PRP at 1000×g for 2 minutes.
Techniques established by Born et al., J. Physiol. […] PRP (1 ml.) was added to a siliconized cuvette containing a siliconized stirring bar and placed in a densitometer maintained at 37° C. and stirred at 1000 RPM. Various concentrations of test compounds were added in 50 μl of saline and incubated with PRP for 5 minutes. Aggregation was initiated by the addition of sufficient concentrations of ADP (Sigma Chemical Co.), epinephrine HCl (Parke, Davis & Co., Detroit, Michigan), or human mammary gland collagen (obtained from Roosevelt Hospital, N.Y.) to give about 60% of maximum aggregation response. The light transmission through PPP was used to determine maximum response. The percent inhibition of aggregation caused by the drug was calculated from the strip chart recordings at the point of maximum collagen response.

prostaglandin formation = assay: Inhibition of prostaglandin formation (general statement)
[4] = Toxicity (general statement)
[5] = Ulcerogenicity (general statement)
Acute toxicity in mice = conditions: mouse, in vivo
Experimental: CF-IS mice of both sexes weighing 17-25 grams were used. The compounds were ground in a mortar and suspended in 5% gum acacia for oral or intraperitoneal administration. Eight to ten mice were used per dose level. […] The LD50 was calculated by the method of Miller et al., Proc. Soc. Exp. Biol. Med., 57, pages 261-264 (1944).

Prostaglandin synthetase = molecular target: T1, Prostaglandin synthetase (Ovis aries, UniProt P05979); assay: Prostaglandin synthetase inhibition; type: biochemical; conditions: read-out: PG synthetase IC50
T1 construct: from tissue
T1 sequence (P05979 25-600): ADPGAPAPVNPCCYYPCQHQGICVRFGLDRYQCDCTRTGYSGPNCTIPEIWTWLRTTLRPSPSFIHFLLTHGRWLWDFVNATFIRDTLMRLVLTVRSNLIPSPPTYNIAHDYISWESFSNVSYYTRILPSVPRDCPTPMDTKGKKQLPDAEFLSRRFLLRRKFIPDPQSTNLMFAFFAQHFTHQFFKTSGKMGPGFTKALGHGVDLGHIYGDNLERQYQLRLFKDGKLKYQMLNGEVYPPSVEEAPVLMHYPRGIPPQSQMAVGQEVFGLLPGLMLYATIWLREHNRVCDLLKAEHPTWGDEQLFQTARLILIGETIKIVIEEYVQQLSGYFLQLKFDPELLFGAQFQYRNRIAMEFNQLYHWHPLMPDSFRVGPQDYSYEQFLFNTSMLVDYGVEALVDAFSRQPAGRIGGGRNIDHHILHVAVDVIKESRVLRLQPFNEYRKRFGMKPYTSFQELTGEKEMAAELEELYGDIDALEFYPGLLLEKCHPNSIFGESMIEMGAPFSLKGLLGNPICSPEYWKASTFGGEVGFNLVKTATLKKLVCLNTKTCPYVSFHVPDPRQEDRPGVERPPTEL

With N#Cc1[nH]c2ccc(C(O)(C(F)(F)F)C(F)(F)F)cc2c1-c1ccccc1 [nitrile, 3-Phenyl-5-[2,2,2-trifluoro-1-hydroxy-1-(trifluoromethyl)ethyl]indole-2-carbonitrile] the “central and peripheral pharmacological activity (in words)” value [1] was “devoid of central and peripheral pharmacological activity”, the TD50 at 4 h [2] was > 250 mg/kg and the “serum PGF2α” value (serum PGF2α; 1 mg/kg i.p., ± SE) was 27 ± 2.9 ng/mL. The “serum PGF2α” value (serum PGF2α; 1 mg/kg p.o., ± SE) was 28 ± 4.6 ng/mL, the “serum PGF2α” value (serum PGF2α; 3 mg/kg i.p., ± SE, p <0.05) was 18 ± 1.5 ng/mL and the “serum PGF2α” value (serum PGF2α; 3 mg/kg p.o., ± SE) was 19 ± 4.2 ng/mL. For the same molecule, the “serum PGF2α” value (serum PGF2α; 10 mg/kg i.p., ± SE, p <0.01) was 18 ± 2.9 ng/mL, the “serum PGF2α” value (serum PGF2α; 10 mg/kg p.o., ± SE, p <0.001) was 12 ± 2.4 ng/mL and the “serum PGF2α” value (serum PGF2α; 30 mg/kg i.p., ± SE, p <0.001) was 2 ± 1.6 ng/mL. The “serum PGF2α” value (serum PGF2α; 30 mg/kg p.o.) was 0 ng/mL, the “serum PGF2α” value (serum PGF2α; 100 mg/kg i.p.) was 0 ng/mL and the “serum PGF2α” value (serum PGF2α; 100 mg/kg p.o.) was 0 ng/mL. It also gave an ED50 (serum PGF2α; ip) of 15 mg/kg, an ED50 (serum PGF2α; po) of 10 mg/kg and a Δ light transmission ([3]; 2.5 μM, Expt. I) of 49 units. For the same molecule, the Δ light transmission ([3]; 2.5 μM, Expt. II) was 50 units, the Δ light transmission ([3]; 5 μM, Expt. I) was 24 units and the Δ light transmission ([3]; 5 μM, Expt. II) was 20 units. The Δ light transmission ([3]; 15 μM, Expt. I) was 8 units, the Δ light transmission ([3]; 15 μM, Expt. II) was 7 units and the Δ light transmission ([3]; 25 μM, Expt. I) was 5 units. The Δ light transmission ([3]; 25 μM, Expt. II) was 5 units, the Δ light transmission ([3]; 50 μM, Expt. I) was 4 units and the Δ light transmission ([3]; 50 μM, Expt. II) was 3 units. For the same molecule, the inhibition at 2.5 µM ([3]; Homo sapiens, Platelet, 2.5 μM, Expt. I) was 24.6%, the inhibition at 2.5 µM ([3]; Homo sapiens, Platelet, 2.5 μM, Expt. II) was 16.7% and the inhibition at 5 µM ([3]; Homo sapiens, Platelet, 5 μM, Expt. I) was 63.1%. The inhibition at 5 µM ([3]; Homo sapiens, Platelet, 5 μM, Expt. II) was 66.6%, the inhibition at 15 µM ([3]; Homo sapiens, Platelet, 15 μM, Expt. I) was 87.7% and the inhibition at 15 µM ([3]; Homo sapiens, Platelet, 15 μM, Expt. II) was 88.3%. It also gave an inhibition at 25 µM ([3]; Homo sapiens, Platelet, 25 μM, Expt. I) of 92.4%, an inhibition at 25 µM ([3]; Homo sapiens, Platelet, 25 μM, Expt. II) of 91.6% and an inhibition at 50 µM ([3]; Homo sapiens, Platelet, 50 μM, Expt. I) of 93.8%. The inhibition at 50 µM ([3]; Homo sapiens, Platelet, 50 μM, Expt. II) was 95%, the pIC50 ([3]; Homo sapiens, Platelet, Table 7, read-out: Inhibition of collagen-induced platelet aggregation, Activity IC50) was 5.46 and the pIC50 ([3]; incubation in human citrated platelet-rich plasma, read-out: IC50 collagen) was 5.46. The “inhibition of prostaglandin formation (in words)” value (prostaglandin formation) was “inhibit prostaglandin formation”, the “toxicity (in words)” value [4] was “low in toxicity” and the “ulcerogenicity (in words)” value [5] was “non-ulcerogenic”. The LD50 at 120 h (Acute toxicity in mice; ip) was 750 mg/kg, the LD50 at 120 h (Acute toxicity in mice; po) was > 1000 mg/kg and the pIC50 (Prostaglandin synthetase) was 6.30.
